Reference: patent US12258554B2 (priority 2014, dated 2025)
Several values for one entry are separate records, joined by “and”; a condition that tells them apart may be missing. Equal entries are not always repeated. Where two headings read alike, the source gives them in different places. Where a SMILES comes first, the peptide text is derived from it. Bridges are numbered along the chain shown (N, C = ends). [ ]: non-standard residue; d: D form. The star is where a group is joined. ξ: configuration not given here. Pentadecanoyl(3ξ-OH,15-Gua) = N=C(N)NCCCCCCCCCCCCC(O)CC(=O)*; d(aThr) = C[C@@H](O)[C@@H](N)C(=O)O; Thr(3ξ) = CC(O)[C@H](N)C(=O)O; ξY = NC(Cc1ccc(O)cc1)C(=O)O

Assays:
[1] = test system: Phytophthora infestans (PHYTIN); assay type: in vivo; conditions: for % efficacy (% fungal attack): late blight on tomato, protective application, metabolite conc. 7.2 ppm, visually assessed 5-7 days after inoculation; for % efficacy PHYTIN: in planta, 360 ppm, assessed 5-7 days after inoculation
[2] = test system: Fusarium graminearum (GIBBZE); assay type: in vivo; conditions: for % efficacy (% fungal attack): head blight on wheat, protective application, metabolite conc. 360 ppm, visually assessed 5-7 days after inoculation
[3] = test system: Botrytis cinerea (BOTRCI); experiment: Fungal growth assay in 96 well plates; assay type: cell-based; conditions: evaluation 7 d after inoculation, OD 600 nm, YBA, about 18° C.; read-out: Fungal growth inhibition (IC50) BOTRCI (7d)
Method: (§1) Fungal growth assays were performed in 96 well plates with spore suspension of the pathogen Botrytis cinerea (BOTRCI, in YBA [10 g Bacto peptone (Becton Dickinson 211677), 10 g yeast extract (Becton Dickinson 212750), 20 g sodium acetate, ad 1000 mL aqua bidest] or Alternaria solani (ALTESO, in YBG [10 g Bacto peptone (Becton Dickinson 211677), 10 g yeast extract (Becton Dickinson 212750), 20 g glycerine 99%, ad 1000 mL aqua bidest]). Fusaricidins and compounds 1A and 1B were dissolved and diluted in DMSO. Different concentrations ranging from 60 μM down to 0.3 μM were pipetted into the microtiter plate. An aqueous suspension of 10^4 spores/ml was added. The plates were incubated at about 18° C. Fungal growth was determined by measuring the optical density at 600 nm in a microplate reader 3 and 7 days after the inoculation of the spores and compared to the untreated control (DMSO). IC50 (concentration [μM] of the respective metabolite required for 50% inhibition of fungal growth) has been determined thereafter.

[4] = test system: Alternaria solani (ALTESO); experiment: Fungal growth assay in 96 well plates; assay type: cell-based; conditions: OD 600 nm, YBG, about 18° C.
Method: as §1

[5] = test system: important fungal diseases on crop plants; assay type: in vivo; conditions: metabolites; for controlling important fungal diseases on crop plants: dose levels as low as 7.2 ppm; for antifungal efficacy compared with Fusaricidin A, B and D: glasshouse trials
[6] = test system: Phakopsora pachyrhizi (PHAKPA); conditions: in vivo
[7] = test system: Botrytis cinerea (BOTRCI); conditions: in vivo
[8] = test system: Alternaria solani (ALTESO); conditions: in vivo
[9] = test system: Septoria tritici (SEPTTR); experiment: Glasshouse test, speckled leaf blotch on wheat, protective application; assay type: in vivo; conditions: metabolite conc. 360 ppm
Method: Commercially available young wheat seedlings were used for the described greenhouse trial. 2 replications (pots with 1 plant each) were used per treatment. Plants were grown in commercially available substrate (Universal, Floragard) at approx. 22° C. in the greenhouse. The humidity was controlled using a special device (˜90% humidity). The plants were sprayed to runoff with crude culture broth of 2-6 days old cultures of Paenibacillus spp. (depending on the setup) using a spray cabinet. Culture conditions are described in Example 3. One day after application the treated plants were inoculated with a suspension of spores of Septoria tritici (SEPTTR). After inoculation, the trial plants were immediately transferred to a humid chamber. The extent of fungal attack on the leaves was visually assessed 21-28 days after inoculation.

[10] = test system: clinically relevant fungi and gram-positive bacteria such a Staphylococcus aureus; conditions: ChemMedChem 7, 871-882, 2012; cited from earlier work
[11] = evaluation 3 d after inoculation, read-out: Fungal growth inhibition (IC50) ALTESO (3 d)
[12] = evaluation 7 d after inoculation, read-out: Fungal growth inhibition (IC50) ALTESO (7 d)

| SMILES | % efficacy (% fungal attack) [1] | % efficacy (% fungal attack) [2] | IC50 [3] | IC50 [4, 11] | IC50 [4, 12] | controlling important fungal diseases on crop plants [5] | antifungal efficacy compared with Fusaricidin A, B and D [5] | % efficacy PHYTIN [1] | % efficacy GIBBZE ([2]; in planta, 360 ppm, assessed 5-7 days after inoculation) | % efficacy PHAKPA [6] | % efficacy BOTRCI [7] | % efficacy ALTESO [8] | % efficacy (% fungal attack) [9] | MIC value range [10] |
| --- | --- | --- | --- | --- | --- | --- | --- | --- | --- | --- | --- | --- | --- | --- |
| CC(C)[C@@H]1NC(=O)[C@@H](C(C)C)NC(=O)[C@@H](NC(=O)CC(O)CCCCCCCCCCCCN=C(N)N)C(C)OC(=O)[C@@H](C)NC(=O)[C@@H](CCC(N)=O)NC(=O)[C@@H]([C@H](C)O)NC1=O (stereo in doubt) [Compound 5B, fusaricidin B] | 4% | 0% | 0.6 µM | 1.1 µM | 0.6 µM |  |  |  |  |  |  |  |  |  |
| CCC(C)C1NC(=O)C(NC(=O)CC(O)CCCCCCCCCCCCNC(=N)N)C(C)OC(=O)C(C)NC(=O)C(CC(N)=O)NC(=O)C(C(C)O)NC(=O)C(Cc2ccc(O)cc2)NC1=O (stereo not shown) [Compound 1A] ({Pentadecanoyl(3ξ-OH,15-Gua)}-TIYTNA; ester 1-C; configuration not given here) |  | 49% | 0.3 µM | 0.6 µM | 0.5 µM | effective | higher antifungal efficacy than Fusaricidin A, B and D | 100% | 49% | 95% | 99% and 97% | 74% |  |  |
| CCC(C)C1NC(=O)C(NC(=O)CC(O)CCCCCCCCCCCCNC(=N)N)C(C)OC(=O)C(C)NC(=O)C(CCC(N)=O)NC(=O)C(C(C)O)NC(=O)C(Cc2ccc(O)cc2)NC1=O (stereo not shown) [Compound 1B] ({Pentadecanoyl(3ξ-OH,15-Gua)}-TIYTQA; ester 1-C; configuration not given here) | 44% |  | 0.4 µM | 0.6 µM | 0.4 µM | effective | higher antifungal efficacy than Fusaricidin A, B and D | 100% |  | 97% | 97% and 100% |  | 80% |  |
| CC1OC(=O)[C@@H](C)NC(=O)[C@@H](CCC(N)=O)NC(=O)[C@@H]([C@H](C)O)NC(=O)C(Cc2ccc(O)cc2)NC(=O)[C@@H](C(C)C)NC(=O)[C@H]1NC(=O)CC(O)CCCCCCCCCCCCN=C(N)N (stereo partly shown) [Compound 2B, fusaricidin D] ({Pentadecanoyl(3ξ-OH,15-Gua)}-[Thr(3ξ)][dV][ξY][dT][dQ][dA]; ester 1-C) | 0% |  | 0.5 µM | 1.1 µM | 0.6 µM |  |  |  |  |  |  |  | 50% |  |
| CC(C)[C@@H]1NC(=O)[C@@H](C(C)C)NC(=O)[C@@H](NC(=O)CC(O)CCCCCCCCCCCCN=C(N)N)[C@@H](C)OC(=O)[C@@H](C)NC(=O)[C@@H](CC(N)=O)NC(=O)[C@@H]([C@@H](C)O)NC1=O (stereo partly shown) [Compound 5A, fusaricidin A] ({Pentadecanoyl(3ξ-OH,15-Gua)}-T[dV]V[d(aThr)][dN][dA]; ester 1-C) | 15% | 31% | 0.5 µM | 1.3 µM | 0.7 µM |  |  |  |  |  |  |  |  | 0.78 to 3.12 µg/mL |
